These results are taken from patent US20230295235A1, “COMPOUNDS TARGETING ALPHA4-BETA7 INTEGRIN” (ZEALAND PHARMA A/S, priority 2020, published 2023).

As a reminder, the IC50 is the concentration that gives 50% inhibition.

The structures appear in SMILES notation.

Assay [1] relates to integrin α4β7+ T helper memory lymphocytes in mesenteric lymph nodes. The assay is described as follows: In vivo T lymphocyte trafficking analysis in DSS mouse model of colitis. As for the experimental part:
Animal care: The animal care facility employed is accredited by the Canadian Council on Animal Care (CCAC). This study was approved by a certified Animal Care Committee and complied with CACC standards and regulations governing the use of animals for research. The animals were housed under standardized environmental conditions. A standard certified commercial rodent diet was provided ad libitum. Tap water was provided ad libitum at all times.
Dextran sulfate sodium (DSS) was administered to C57BL/6 female mice for five days through addition to their drinking water at 3%. Body weight and disease activity index (“DAI”) were measured on day 5 in order to distribute DSS-treated animals in uniform groups prior to dosing. DAI was scored based on the severity of three specific symptoms associated with colitis: 1- blood in stool (negative hemoccult, positive hemoccult, blood traces in stool visible, rectal bleeding); 2- stool consistency (normal, soft but still formed, very soft, diarrhea); 3- body weight loss.
From day 6 to day 9, the compound of Example 1 or the vehicle were administered orally daily at 5 mL/kg. […] Cell populations were then analyzed using FACSCanto cytometer and gating on CD4+, CD44^hi, CD45RB^low, α4β7+.
Statistical analysis was performed using GraphPad Prism. Differences among groups were evaluated by two-way ANOVA, with a 95% confidence interval. […]

Assay [2] deals with T1, (α4β7-negative Th memory cells) (Homo sapiens, UniProt P05556+P13612).
T1 construct: endogenous in cells; host or cells: human whole blood
Kind of assay: Competition assay: inhibition of biotinylated rhVCAM-1-Fc binding to α4β7-negative Th memory cells in whole blood (FACS receptor occupancy). It counts as cell-based. As to conditions: single donor, 4 mM MnCl2, α4β7-negative Th memory cells, read-out: IC50, VCAM binding. As for the experimental part: The compound of Example 1 was used in competition assay on CD4+ integrin α4+β7-|o memory T cells.
Receptor occupancy in primary cells was determined by measuring the amount of biotinylated human recombinant MAdCAM-1-Fc or human recombinant VCAM-1-Fc bound to selected cell populations using flow cytometry. Human recombinant MAdCAM-1-Fc or human recombinant VCAM-1-Fc (R&D systems) were biotinylated using commercially available reagents and protocol (Pierce).
Whole blood was collected from human donors in sodium heparin tubes. A volume of 100 µL of blood was incubated with the compound of Example 1 and 4 mM MnCl2 for 1 hour at room temperature. Cells were washed twice with 1 mL of 1X Dulbecco’s phosphate buffered saline (DPBS) calcium magnesium free (CMF) (ThermoFisher Scientific) and resuspended in 100 µL of DPBS CMF. […]
Fluorescence-activated cell sorting (FACS) data was acquired by electronic gating on the basis of forward versus side scatter. […] Cell population were determined using the following markers: CD45+, CD3+, CD4+,CD45RO+, CD49d+, integrin β7, biotinylated ligands.
Compound receptor occupancy was defined as the decrease in the number of integrin β7+ or integrin β7-lo cells binding biotinylated rhMAdCAM-1 or rhVCAM-1, respectively. Receptor occupancy was calculated with the following equation: […]

T1 sequence (P13612 34-1032): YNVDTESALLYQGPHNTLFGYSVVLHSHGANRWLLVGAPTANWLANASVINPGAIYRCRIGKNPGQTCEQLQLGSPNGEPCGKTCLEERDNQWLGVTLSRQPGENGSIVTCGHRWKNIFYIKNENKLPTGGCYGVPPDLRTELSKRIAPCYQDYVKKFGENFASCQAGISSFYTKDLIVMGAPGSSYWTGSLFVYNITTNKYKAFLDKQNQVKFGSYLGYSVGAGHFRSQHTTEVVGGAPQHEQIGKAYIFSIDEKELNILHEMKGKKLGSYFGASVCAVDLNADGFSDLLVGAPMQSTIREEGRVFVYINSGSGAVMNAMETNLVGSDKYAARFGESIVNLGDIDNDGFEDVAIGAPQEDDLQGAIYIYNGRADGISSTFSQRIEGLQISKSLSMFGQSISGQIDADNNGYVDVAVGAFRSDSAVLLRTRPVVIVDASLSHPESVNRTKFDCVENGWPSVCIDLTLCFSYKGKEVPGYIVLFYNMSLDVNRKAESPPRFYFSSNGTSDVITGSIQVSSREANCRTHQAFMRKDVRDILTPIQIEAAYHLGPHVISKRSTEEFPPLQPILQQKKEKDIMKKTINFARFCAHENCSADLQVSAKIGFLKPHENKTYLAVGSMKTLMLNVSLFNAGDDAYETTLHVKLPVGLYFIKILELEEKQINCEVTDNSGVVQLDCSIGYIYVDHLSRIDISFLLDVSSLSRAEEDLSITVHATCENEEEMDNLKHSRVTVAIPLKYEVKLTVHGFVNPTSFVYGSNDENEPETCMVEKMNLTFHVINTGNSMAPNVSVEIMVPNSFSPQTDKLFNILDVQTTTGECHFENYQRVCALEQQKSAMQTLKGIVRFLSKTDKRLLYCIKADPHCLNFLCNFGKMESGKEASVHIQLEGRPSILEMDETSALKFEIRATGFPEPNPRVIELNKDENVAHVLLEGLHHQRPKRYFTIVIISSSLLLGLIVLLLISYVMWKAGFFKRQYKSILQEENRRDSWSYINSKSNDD
T1 sequence (P05556 21-798): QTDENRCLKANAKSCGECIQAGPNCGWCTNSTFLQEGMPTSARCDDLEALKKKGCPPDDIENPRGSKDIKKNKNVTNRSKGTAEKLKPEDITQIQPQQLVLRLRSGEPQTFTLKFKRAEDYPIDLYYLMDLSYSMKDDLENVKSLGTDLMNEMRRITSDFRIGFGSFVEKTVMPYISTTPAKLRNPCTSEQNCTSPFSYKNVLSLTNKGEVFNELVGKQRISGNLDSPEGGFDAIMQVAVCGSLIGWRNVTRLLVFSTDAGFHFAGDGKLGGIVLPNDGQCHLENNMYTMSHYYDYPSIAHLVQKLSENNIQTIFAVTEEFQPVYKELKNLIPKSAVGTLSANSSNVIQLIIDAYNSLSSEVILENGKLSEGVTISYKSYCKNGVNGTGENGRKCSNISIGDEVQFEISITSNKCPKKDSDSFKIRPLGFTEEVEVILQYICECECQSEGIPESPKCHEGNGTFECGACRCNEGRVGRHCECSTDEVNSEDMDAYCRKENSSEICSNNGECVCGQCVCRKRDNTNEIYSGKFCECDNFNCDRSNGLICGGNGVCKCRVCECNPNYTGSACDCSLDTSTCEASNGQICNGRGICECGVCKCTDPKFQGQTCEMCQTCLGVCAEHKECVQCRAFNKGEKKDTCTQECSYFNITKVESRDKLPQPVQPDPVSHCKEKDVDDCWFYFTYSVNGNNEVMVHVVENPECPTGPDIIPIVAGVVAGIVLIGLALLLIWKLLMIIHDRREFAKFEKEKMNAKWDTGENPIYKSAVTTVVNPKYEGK

With `CC(C)C[C@@H]1NC(=O)c2ccc(-c3ccc(N4CCN(C(=O)c5ccccc5-c5ccccc5C(=O)N5CCN(c6ccc(-c7ccc8cc7CNC(=O)[C@@H]7CCCN7[C@H](C(=O)NC(C)(C)C)[C@H](C)NC(=O)[C@H]([C@@H](C)O)NC(=O)[C@H](CC(=O)O)NC(=O)[C@H](CC(C)C)NC8=O)cc6)CC5)CC4)cc3)c(c2)CNC(=O)[C@@H]2CCCN2[C@H](C(=O)NC(C)(C)C)[C@H](C)NC(=O)[C@H]([C@@H](C)O)NC(=O)[C@H](CC(=O)O)NC1=O` [Example 1, 2,2′-((S,S,S,S,S,S,1^2,8S,11S,14S,17S,18S)-((([1,1′-Biphenyl]-2,2′-Dicarbonyl)-Bis(Piperazine-4,1-Diyl))Bis(4,1-Phenylene))Bis(18-(Tert-Butylcarbamoyl)-14-((R)-1-Hydroxyethyl)-8-Isobutyl-17-Methyl-2,6,9,12,15-Pentaoxo-3,7,10,13,16-Pentaaza-1(2,1)-Pyrrolidina-5(1,3)-Benzenacyclooctadecaphane-5^6,11-Diyl))-Diacetic Acid], the “reduction in α4β7+ T cells in the mesenteric lymph nodes” value in assay [1] (100 mg/kg orally daily day 6 to 9, DSS-treated C57BL/6 female mice, vs DSS alone) is given as 60%. Also, the “detection of integrin α4β7+ T helper memory lymphocytes in the mesenteric lymph nodes (MLN)” value in assay [1] (10, 30 or 100 mg/kg orally daily day 6 to 9, DSS-treated mice) is “reduced the detection of integrin α4β7+ T helper memory lymphocytes”. Moreover, in assay [2], the IC50 was around 600 nM.
